{"source": "ChEMBL document CHEMBL1201862", "about": "“PubChem BioAssay data set” (2004)", "format_in_all_cases": "functional", "key": {"[1]": {"target": "T1, ATP-dependent translocase ABCB1 (Homo sapiens, UniProt P08183)", "T1 sequence (P08183 whole entry)": "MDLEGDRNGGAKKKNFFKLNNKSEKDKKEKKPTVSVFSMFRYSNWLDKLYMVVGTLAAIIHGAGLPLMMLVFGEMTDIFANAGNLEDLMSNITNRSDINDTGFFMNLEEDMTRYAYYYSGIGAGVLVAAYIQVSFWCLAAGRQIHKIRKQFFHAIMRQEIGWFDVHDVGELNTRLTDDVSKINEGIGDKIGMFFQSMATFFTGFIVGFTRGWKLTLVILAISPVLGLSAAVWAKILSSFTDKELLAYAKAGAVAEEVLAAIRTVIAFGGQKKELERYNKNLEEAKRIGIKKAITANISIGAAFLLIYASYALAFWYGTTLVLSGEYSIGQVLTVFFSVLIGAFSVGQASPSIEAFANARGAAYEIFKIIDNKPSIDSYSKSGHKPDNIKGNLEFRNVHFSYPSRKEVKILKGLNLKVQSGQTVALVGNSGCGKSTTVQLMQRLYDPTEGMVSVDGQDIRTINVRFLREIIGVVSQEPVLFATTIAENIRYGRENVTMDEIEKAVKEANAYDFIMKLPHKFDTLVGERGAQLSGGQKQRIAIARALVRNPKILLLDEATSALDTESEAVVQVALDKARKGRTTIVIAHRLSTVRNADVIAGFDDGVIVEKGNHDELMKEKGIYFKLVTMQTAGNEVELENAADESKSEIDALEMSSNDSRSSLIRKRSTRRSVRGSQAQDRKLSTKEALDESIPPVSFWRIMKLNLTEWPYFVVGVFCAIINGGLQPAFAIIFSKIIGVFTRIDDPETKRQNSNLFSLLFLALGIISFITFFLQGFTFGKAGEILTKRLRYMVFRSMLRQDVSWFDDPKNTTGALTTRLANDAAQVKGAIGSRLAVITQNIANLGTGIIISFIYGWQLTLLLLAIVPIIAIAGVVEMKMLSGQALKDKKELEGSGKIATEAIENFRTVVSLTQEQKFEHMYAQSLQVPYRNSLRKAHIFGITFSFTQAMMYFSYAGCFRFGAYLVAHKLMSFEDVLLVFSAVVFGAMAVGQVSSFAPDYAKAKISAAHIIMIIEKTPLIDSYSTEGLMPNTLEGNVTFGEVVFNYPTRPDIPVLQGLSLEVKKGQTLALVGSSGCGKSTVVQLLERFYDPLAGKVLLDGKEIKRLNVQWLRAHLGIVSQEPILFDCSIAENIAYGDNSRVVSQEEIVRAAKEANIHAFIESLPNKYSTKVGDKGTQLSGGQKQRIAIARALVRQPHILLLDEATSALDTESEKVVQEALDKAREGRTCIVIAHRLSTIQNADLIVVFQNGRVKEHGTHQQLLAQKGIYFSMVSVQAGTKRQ", "test": "inhibition of BCRP-mediated JC-1 efflux – Ig-MXP3 cells, flow cytometry, set 2, dose response (AID 504566);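 note: flow cytometry median green fluorescence of retained JC-1 dye; potency of efflux pump inhibition measured as rising substrate retention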", "conditions": "read-out: EC50_MICROM_"}, "[2]": {"target": "T1, ATP-dependent translocase ABCB1", "test": "P-gp JC-1 efflux blockade concentration-response – Jurkat-DNR cells, flow cytometry, set 2, dose response (AID 504569);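 note: potency of pump inhibitors that raise cellular JC-1 green fluorescence up to the nicardipine level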", "conditions": "read-out: EC50_MICROM_"}, "[3]": {"target": "Ras and Rab interactor 1/Tyrosine-protein kinase ABL1 (Homo sapiens, UniProt P00519+Q13671)", "sequence (P00519 whole entry)": "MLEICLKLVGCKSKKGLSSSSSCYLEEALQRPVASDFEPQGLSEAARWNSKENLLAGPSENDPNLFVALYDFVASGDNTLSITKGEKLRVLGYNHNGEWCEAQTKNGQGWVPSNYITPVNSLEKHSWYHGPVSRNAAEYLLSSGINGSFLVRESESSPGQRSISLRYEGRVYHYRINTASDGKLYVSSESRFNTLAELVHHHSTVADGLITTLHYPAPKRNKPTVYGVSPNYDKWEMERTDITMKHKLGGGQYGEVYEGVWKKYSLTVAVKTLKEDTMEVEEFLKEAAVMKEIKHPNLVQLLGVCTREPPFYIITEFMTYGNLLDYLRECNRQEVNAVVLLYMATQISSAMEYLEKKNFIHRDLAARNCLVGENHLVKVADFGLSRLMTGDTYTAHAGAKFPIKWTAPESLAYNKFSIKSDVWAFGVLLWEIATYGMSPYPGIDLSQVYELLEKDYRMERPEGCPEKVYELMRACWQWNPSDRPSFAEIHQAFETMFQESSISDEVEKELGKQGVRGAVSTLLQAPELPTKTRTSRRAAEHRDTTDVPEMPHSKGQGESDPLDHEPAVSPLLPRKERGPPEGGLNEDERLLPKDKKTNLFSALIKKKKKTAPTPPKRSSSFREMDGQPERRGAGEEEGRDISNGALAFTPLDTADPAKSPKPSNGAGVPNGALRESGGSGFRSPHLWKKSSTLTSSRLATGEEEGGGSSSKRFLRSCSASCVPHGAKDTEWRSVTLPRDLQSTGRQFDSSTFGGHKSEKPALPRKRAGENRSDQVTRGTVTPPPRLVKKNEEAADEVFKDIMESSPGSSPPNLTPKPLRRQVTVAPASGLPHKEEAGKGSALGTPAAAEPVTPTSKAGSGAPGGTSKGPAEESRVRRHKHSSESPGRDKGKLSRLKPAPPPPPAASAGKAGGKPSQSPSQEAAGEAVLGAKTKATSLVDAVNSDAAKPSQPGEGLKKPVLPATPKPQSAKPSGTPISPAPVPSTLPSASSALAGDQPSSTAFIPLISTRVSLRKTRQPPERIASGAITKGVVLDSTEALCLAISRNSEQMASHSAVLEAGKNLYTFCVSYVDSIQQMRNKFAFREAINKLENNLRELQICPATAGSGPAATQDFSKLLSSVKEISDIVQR", "sequence (Q13671 whole entry)": "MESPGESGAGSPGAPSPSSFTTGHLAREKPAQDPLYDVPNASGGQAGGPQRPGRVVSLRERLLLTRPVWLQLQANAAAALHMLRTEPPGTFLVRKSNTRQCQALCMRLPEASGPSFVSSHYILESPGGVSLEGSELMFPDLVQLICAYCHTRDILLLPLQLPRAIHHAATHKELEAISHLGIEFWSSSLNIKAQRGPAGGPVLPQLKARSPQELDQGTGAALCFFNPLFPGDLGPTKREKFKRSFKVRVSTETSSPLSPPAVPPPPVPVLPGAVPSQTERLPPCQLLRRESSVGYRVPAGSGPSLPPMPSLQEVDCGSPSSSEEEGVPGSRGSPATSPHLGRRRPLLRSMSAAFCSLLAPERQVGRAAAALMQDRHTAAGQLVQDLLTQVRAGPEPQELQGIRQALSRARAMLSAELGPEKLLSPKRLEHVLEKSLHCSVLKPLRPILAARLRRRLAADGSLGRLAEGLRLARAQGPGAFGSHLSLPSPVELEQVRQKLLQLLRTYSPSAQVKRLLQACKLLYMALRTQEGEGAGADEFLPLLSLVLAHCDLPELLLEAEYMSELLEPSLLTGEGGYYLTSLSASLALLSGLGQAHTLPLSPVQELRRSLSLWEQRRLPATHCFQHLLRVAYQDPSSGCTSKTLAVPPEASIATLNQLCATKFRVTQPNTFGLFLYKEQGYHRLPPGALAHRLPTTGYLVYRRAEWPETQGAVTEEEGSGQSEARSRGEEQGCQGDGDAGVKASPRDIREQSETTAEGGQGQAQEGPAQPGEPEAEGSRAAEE"}, "[4]": {"target": "Melanin-concentrating hormone receptor 1 (Homo sapiens, UniProt Q99705)", "sequence (Q99705 whole entry)": "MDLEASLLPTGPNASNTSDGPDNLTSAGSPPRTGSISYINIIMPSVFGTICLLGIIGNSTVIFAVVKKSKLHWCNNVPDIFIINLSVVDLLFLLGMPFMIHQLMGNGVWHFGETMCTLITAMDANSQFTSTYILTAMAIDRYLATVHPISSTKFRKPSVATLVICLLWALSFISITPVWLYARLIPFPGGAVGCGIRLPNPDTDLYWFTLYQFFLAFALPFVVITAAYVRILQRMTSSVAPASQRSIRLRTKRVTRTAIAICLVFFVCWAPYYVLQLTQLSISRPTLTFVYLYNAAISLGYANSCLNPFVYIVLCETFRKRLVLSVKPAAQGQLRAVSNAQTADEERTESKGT", "test": "Late-stage fluorescence-based counterscreen for antagonists of the G-protein coupled receptor 7 (GPR7): cell-based dose response assay to identify antagonists of the melanin-concentrating hormone receptor 1 (MCHR1) Set 5."}, "[5]": {"target": "T2, Neuropeptides B/W receptor type 1 (Homo sapiens, UniProt P48145)", "T2 sequence (P48145 whole entry)": "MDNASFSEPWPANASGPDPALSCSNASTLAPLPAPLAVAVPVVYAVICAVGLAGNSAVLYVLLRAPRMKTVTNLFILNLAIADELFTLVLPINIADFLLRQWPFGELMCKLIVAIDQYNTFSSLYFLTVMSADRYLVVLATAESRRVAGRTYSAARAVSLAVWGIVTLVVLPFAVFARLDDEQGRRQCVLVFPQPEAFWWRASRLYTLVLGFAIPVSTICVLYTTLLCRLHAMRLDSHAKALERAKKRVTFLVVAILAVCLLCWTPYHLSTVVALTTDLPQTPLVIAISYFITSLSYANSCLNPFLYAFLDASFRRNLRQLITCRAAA", "test": "human NPBW1 receptor blockade, IC50 – cell-based, fluorescence, dose response, set 5, late-stage follow-up (AID 588566)"}, "[6]": {"target": "T3, High affinity choline transporter 1 (Homo sapiens, UniProt Q9GZV3)", "T3 sequence (Q9GZV3 whole entry)": "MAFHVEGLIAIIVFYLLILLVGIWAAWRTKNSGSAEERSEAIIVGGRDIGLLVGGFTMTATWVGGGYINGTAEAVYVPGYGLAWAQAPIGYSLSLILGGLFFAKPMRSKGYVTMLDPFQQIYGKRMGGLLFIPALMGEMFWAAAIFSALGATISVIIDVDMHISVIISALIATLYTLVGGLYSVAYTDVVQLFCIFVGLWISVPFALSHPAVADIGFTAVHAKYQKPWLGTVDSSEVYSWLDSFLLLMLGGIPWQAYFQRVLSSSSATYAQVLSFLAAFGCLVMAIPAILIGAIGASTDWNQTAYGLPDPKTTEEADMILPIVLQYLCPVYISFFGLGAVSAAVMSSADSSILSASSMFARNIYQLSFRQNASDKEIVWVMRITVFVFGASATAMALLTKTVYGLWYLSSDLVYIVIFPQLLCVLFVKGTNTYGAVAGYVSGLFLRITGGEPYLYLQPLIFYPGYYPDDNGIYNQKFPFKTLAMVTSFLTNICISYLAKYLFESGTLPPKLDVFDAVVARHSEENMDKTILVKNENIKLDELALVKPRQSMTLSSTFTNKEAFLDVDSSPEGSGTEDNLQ", "test": "human choline transporter blockers, potency – cell-based, 5-point CRC, membrane potential dye, dose response (AID 504840)"}, "[7]": {"target": "T3, High affinity choline transporter 1", "test": "human choline transporter blockers, potency – cell-based, 10-point CRC, membrane potential dye, dose response (AID 588401);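 note: membrane potential dye fluorescence of choline-evoked depolarization via CHT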"}, "[8]": {"target": "T3, High affinity choline transporter 1", "test": "human choline transporter radiolabel uptake blockers – cell-based, 3H-choline uptake, CHT LV-AA trafficking mutant, CRC, dose response (AID 602208)"}, "Interleukin-8 [9]": {"target": "T4, Interleukin-8 (Homo sapiens, UniProt P10145)", "T4 sequence (P10145 whole entry)": "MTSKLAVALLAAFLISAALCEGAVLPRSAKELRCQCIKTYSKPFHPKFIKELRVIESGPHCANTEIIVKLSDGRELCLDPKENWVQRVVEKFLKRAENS", "test": "Dose Response confirmation of uHTS small molecule hits for cystic fibrosis induced NFkb Inhibitors in a PAF-induced IL8 counterscreen.", "conditions": "read-out: IC50_Mean"}, "Interleukin-8 [10]": {"target": "T4, Interleukin-8", "test": "Dose Response confirmation of uHTS small molecule hits for cystic fibrosis induced NFkb Inhibitors in a TNFa-induced IL8 counterscreen.", "conditions": "read-out: IC50_Mean"}}, "note": "The source made the active and inactive calls."}
{"smiles": "COc1cccc(-c2cc3nc(-c4ccccc4)cc(N4CCN(C(=O)c5ccco5)CC4)n3n2)c1", "values": [{"measurement": "EC50", "setting": "[1]", "result": "1.17 µM (active)"}, {"measurement": "EC50", "setting": "[2]", "result": "4.32 µM (active)"}]}
{"smiles": "CC1(C)Cc2nc3sc4c(=O)[nH]cnc4c3cc2CS1", "values": [{"measurement": "IC50", "setting": "[3]", "result": "> 0.302 µM (active)"}]}
{"smiles": "O=C(C1CCCCN1C1c2ccccc2CCc2ccccc21)N1CCN(c2ccc([N+](=O)[O-])cc2)CC1", "note": "(stereo not given)", "values": [{"measurement": "IC50", "setting": "[4]", "result": "> 20 µM (inactive)"}, {"measurement": "IC50", "setting": "[5]", "result": "> 20 µM (inactive)"}]}
{"smiles": "O=C(Nc1ccc(S(=O)(=O)NC2=NCCCCC2)cc1)c1ccc(Cl)cc1Cl", "values": [{"measurement": "IC50", "setting": "[6]", "result": "7.42 µM (active)"}, {"measurement": "IC50", "setting": "[7]", "result": "4.47 µM (active)"}, {"measurement": "IC50", "setting": "[8]", "result": "0.864 µM (active)"}]}
{"smiles": "Brc1ccc2ncnc(NCc3cccnc3)c2c1", "values": [{"measurement": "IC50", "setting": "Interleukin-8 [9]", "result": "4.61 µM (active)"}, {"measurement": "IC50", "setting": "Interleukin-8 [10]", "result": "1.77 µM (active)"}]}
